According to patent publication US12545669B2, “Cycloalkyl and heterocycloalkyl benzisoxazole sulfonamide derivatives” (Pfizer Inc., priority 2019, dated 2026):

Legend:
TIP60-KAT5 = TIP60-KAT5 (Homo sapiens (Human), UniProt Q92993); assay: biochemical
HBO1-KAT7 = HBO1-KAT7 (Homo sapiens (Human), UniProt O95251); assay: biochemical
MOZ-KAT6A = MOZ-KAT6A (Homo sapiens (Human), UniProt Q92794); assay: biochemical
KAT6A = KAT6A (Homo sapiens (Human), UniProt Q92794); assay: KAT assay protocol (SAMDI mass spectrometry), KAT6A; type: biochemical; details: for inhibition at 1 µM: 1 μM compound; for IC50: KAT6A IC50 at 1 μM AcCoA, 1 μM AcCoA; for Ki: KAT6A Ki at 10 μM AcCoA, 10 μM AcCoA, Morrison equation
Procedure: Biological Assay Section 1 KAT Assay Protocol:
A. Compound Preparation • 1. Prepare 10 mM stock solutions in 100% DMSO from solid material • 2. Serial dilute 10 mM, 1 mM or 0.1 mM compound stocks 3-fold in 100% DMSO for 11-point dose response
B. Reagent Preparation • 1. Prepare 1× assay buffer containing 10 mM Tris HCL pH 8.0, 2.5 mM NaCl, 0.5 mM EDTA, 0.005% BSG and 0.02% Tween-20 • 2. Dilute Histone peptide (CPC Scientific) and AcCoA (Sigma) together in assay buffer to 2×. • 3. Dilute KAT enzyme in assay buffer to 2×.
C. Enzyme Reaction • 1. Final reaction conditions for each KAT assay in a 20 ul assay reaction volume: • i. […] Add 0.5 ul of diluted compound to the assay plate (384-well V-bottom polypropylene plates) or 0.5 ul of DMSO for control wells. • 3. Add 10 ul of 2× Histone peptide/2× AcCoA mix to the assay plate. • 4. Add 10 ul of 2× enzyme to the assay plate. • 5. Stop the reaction after the indicated time with the addition of 2 ul of 5% formic acid • 6. Each reaction was analyzed using self-assembled monolayer desorption/ionization time-of-flight mass spectrometry (Mrksich, Milan (2008) Mass Spectrometry of Self-Assembled Monolayers: A New Tool for Molecular Surface Science ACS Nano 2008 2 (1), 7-18; SAMDI Tech, Inc. (Chicago, IL)). • 7. Area under the curve (AUC) for both substrate and product peaks was determined for KAT6A at M.W. 2723 [Substrate+H]^+ and 2765 [Product+H]^+ with a +/−1 Da tolerance, respectively. • 8. Percent conversion to product was calculated by: AUCProduct/(AUCSubstrate+AUCProduct).
D. Data Analysis • 1. IC50 values were determined by fitting the % conversion at each inhibitor concentration to the 4-parameter IC50 equation using Pfizer proprietary curve fitting software. • 2. Ki values were determined by fitting the % conversion at each inhibitor concentration to the Morrison equation for tightbinding competitive inhibitors using Pfizer proprietary curve fitting software. Materials
KAT enzymes were expressed using a baculovirus expression system and purified at Pfizer, La Jolla. Histone H3 (1-21) peptide ([…], SEQ ID NO:3) was purchased from CPC Scientific (Sunnyvale, CA). Acetyl coenzyme A was purchased from Sigma-Aldrich (St. Louis, MO). All other biochemical reagents were purchased from Sigma-Aldrich or ThermoFisher Scientific (Waltham, MA).
[…] 10 ul of 2× Histone peptide/AcCoA mix was added to a 384-well V-bottom polypropylene assay plate containing 0.5 ul of serially diluted test compound in 100% dimethyl sulfoxide (DMSO). To start the reaction, 10 ul of 2× enzyme solution was added to the assay plate. KAT assays were terminated after 30-60 minutes with the addition of 2 ul of 5% formic acid. KAT6A used histone H3 (1-21) peptide. The final enzyme concentration for KAT6A was 15 nM. Each reaction was analyzed using self-assembled monolayer desorption/ionization time-of-flight mass spectrometry (Mrksich, Milan (2008) Mass Spectrometry of Self-Assembled Monolayers: A New Tool for Molecular Surface Science ACS Nano 2008 2 (1), 7-18; SAMDI Tech, Inc. (Chicago, IL)).
Area under the curve (AUC) for both substrate and product peaks was determined for KAT6A at M.W. 2723 [Substrate+H]^+ and 2765 [Product+H]^+ with a +/−1 Da tolerance, respectively. Percent conversion to product was calculated by: AUCProduct/(AUCSubstrate+AUCProduct). IC50 values were determined by fitting the % conversion at each inhibitor concentration to the 4-parameter IC50 equation using Pfizer proprietary curve fitting software. Ki values were determined by fitting the % conversion at each inhibitor concentration to the Morrison equation for tightbinding competitive inhibitors using Pfizer proprietary curve fitting software.

Chain of KAT6A (Q92794 whole entry): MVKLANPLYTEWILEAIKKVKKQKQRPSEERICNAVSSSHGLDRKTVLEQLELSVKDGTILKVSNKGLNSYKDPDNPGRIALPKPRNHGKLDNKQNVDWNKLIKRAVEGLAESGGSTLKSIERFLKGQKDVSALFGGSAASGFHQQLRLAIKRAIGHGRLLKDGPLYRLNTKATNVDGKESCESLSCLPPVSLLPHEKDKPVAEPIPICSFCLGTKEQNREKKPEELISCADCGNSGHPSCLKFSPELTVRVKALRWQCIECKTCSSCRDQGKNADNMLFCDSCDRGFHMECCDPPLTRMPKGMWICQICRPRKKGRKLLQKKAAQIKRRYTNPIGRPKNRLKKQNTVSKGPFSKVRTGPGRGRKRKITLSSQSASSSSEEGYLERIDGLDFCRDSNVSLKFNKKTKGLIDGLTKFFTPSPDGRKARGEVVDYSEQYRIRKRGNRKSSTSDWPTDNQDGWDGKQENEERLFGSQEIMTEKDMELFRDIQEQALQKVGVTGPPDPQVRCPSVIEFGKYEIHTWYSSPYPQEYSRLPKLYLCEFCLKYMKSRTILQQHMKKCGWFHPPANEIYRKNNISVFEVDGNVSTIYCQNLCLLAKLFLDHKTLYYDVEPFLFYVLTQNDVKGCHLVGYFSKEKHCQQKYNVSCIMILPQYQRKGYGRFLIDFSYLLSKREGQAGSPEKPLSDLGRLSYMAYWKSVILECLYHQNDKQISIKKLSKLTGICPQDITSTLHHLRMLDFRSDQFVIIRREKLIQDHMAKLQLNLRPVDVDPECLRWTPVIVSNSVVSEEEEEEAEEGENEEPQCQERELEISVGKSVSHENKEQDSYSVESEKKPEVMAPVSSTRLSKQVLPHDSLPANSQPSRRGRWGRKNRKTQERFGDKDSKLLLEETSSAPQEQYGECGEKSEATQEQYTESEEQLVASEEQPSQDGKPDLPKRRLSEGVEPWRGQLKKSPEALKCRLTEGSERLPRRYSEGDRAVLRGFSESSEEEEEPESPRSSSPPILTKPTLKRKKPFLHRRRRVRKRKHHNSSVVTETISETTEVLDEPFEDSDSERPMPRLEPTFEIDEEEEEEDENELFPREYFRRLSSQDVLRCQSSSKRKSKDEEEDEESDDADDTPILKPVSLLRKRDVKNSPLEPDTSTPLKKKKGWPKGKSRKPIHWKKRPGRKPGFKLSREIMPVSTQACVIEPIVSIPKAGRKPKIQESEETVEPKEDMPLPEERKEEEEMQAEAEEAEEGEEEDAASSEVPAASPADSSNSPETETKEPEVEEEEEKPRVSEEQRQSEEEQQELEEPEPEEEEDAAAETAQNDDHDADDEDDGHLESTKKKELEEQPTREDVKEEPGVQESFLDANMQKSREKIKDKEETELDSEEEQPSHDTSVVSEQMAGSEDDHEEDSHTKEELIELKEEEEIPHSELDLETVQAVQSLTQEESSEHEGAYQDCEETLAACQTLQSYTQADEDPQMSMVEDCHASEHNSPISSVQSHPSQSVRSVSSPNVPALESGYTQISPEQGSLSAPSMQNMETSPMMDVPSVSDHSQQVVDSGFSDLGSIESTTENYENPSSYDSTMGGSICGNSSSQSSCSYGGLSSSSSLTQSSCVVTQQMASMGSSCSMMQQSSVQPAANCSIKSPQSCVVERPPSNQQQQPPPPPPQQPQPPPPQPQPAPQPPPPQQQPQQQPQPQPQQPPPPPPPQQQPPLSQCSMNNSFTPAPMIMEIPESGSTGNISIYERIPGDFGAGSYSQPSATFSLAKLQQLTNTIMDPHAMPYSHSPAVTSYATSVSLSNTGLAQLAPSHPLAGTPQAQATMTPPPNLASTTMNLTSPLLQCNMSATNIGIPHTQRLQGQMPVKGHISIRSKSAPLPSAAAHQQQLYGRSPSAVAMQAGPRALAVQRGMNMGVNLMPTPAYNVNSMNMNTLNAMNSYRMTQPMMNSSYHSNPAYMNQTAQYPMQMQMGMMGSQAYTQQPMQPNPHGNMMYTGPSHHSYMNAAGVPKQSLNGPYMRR
Chain of TIP60-KAT5 (Q92993 other isoform, or with tags, fused parts or gaps): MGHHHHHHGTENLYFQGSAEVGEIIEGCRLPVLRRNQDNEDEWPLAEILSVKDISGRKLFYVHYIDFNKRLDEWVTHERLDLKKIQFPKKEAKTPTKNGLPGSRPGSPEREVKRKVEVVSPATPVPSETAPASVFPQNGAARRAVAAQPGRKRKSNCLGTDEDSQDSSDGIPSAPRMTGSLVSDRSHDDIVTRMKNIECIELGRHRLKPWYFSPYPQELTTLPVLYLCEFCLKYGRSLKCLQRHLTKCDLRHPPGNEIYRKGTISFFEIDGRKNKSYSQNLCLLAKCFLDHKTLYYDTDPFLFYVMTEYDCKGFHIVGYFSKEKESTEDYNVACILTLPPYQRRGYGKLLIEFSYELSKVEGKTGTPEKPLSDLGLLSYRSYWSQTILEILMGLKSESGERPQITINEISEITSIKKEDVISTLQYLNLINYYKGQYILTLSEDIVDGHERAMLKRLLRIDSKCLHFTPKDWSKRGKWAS
Chain of HBO1-KAT7 (O95251 other isoform, or with tags, fused parts or gaps): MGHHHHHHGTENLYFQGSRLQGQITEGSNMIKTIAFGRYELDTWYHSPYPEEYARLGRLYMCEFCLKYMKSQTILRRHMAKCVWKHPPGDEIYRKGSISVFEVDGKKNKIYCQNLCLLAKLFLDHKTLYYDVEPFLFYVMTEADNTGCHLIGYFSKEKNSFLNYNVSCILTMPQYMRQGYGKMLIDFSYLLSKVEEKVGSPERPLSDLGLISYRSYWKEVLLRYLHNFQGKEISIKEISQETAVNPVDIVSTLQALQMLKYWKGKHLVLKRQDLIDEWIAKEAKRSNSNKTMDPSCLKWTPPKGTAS
Chain of MOZ-KAT6A (Q92794 other isoform, or with tags, fused parts or gaps): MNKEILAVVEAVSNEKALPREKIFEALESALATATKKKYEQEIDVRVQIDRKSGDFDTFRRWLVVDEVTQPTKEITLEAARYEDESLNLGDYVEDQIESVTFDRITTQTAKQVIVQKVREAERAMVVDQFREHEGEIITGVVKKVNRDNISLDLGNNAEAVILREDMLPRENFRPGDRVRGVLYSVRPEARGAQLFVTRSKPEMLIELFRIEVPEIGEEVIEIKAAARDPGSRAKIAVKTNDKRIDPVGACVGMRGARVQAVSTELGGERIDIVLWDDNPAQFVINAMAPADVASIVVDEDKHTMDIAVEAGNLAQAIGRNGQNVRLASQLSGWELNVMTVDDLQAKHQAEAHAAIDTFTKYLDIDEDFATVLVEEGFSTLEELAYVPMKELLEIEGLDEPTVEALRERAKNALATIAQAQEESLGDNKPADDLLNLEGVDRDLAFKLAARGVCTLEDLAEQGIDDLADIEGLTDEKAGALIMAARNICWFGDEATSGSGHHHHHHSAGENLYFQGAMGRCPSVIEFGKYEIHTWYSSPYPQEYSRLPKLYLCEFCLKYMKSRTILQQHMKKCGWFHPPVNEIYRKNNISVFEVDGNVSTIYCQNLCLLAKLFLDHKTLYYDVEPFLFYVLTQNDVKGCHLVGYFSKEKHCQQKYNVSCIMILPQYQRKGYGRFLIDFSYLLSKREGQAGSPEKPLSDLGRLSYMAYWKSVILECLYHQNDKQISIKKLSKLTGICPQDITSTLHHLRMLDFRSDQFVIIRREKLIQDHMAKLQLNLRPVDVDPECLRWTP

Row | Structure (SMILES) | IC50 (TIP60-KAT5) | IC50 (HBO1-KAT7) | IC50 (MOZ-KAT6A) | inhibition at 1 µM (KAT6A) | IC50 (KAT6A) | Ki (KAT6A)
1 | COc1cc(Cn2cccn2)cc2onc(NS(=O)(=O)CC3CCCCC3)c12 [Example 123] | 9.04 µM | 1260 nM | 15 nM | 85% | 28.9 nM | 5.44 nM
2 | COc1cc(Cn2cccn2)cc2onc(NS(=O)(=O)C3CCCCC3)c12 [Example 124] | 2.4 µM | 440 nM | 30 nM | 88% | 117 nM | –
3 | COc1cc(Cn2cccn2)cc2onc(NS(=O)(=O)CC3(C)CC3(F)F)c12 (centres unmarked) [Example 42] | – | – | – | 50% | – | –
4 | CCOC1(CS(=O)(=O)Nc2noc3cc(Cn4cccn4)cc(OC)c23)CCC1 [Example 11] | – | – | – | 45% | – | 371 nM
5 | COc1cc(Cn2cccn2)cc2onc(NS(=O)(=O)CCC3CC3(F)F)c12 (centres unmarked) [Example 78] | – | – | – | 77% | – | 45.8 nM
6 | COc1cc(Cn2cccn2)cc2onc(NS(=O)(=O)CC3CN(S(C)(=O)=O)C3)c12 [Example 85] | – | – | – | 36% | – | 1340 nM
7 | COc1cc(Cn2cccn2)cc2onc(NS(=O)(=O)C3CC(C)C3)c12 (centres unmarked) [Example 73] | – | – | – | 96% | – | –
8 | COc1cc(Cn2cccn2)cc2onc(NS(=O)(=O)C3CC4(CCC4)C3)c12 [Example 33] | – | – | – | 65% | – | –
9 | COCC1(CS(=O)(=O)Nc2noc3cc(Cn4cccn4)cc(OC)c23)CCC1 [Example 55] | – | – | – | 64% | – | –
10 | COc1cc(Cn2cccn2)cc2onc(NS(=O)(=O)CC3(C)CCCCC3)c12 [Example 22] | – | – | – | 60% | – | 33.2 nM
